According to ChEMBL document CHEMBL3045777, “Response of selected horseweed (Conyza canadensis (L.) Cronq.) populations to glyphosate” (2004):

Assays:
[1] = test system: Erigeron canadensis; assay: Herbicidal activity against compound-resistant Conyza canadensis (horseweed) isolate 2 under greenhouse condition at 0.84 kg ae/ha measured 14 days post treatment relative to control; type: functional
[2] = test system: Erigeron canadensis; assay: Herbicidal activity against compound-sensitive Conyza canadensis (horseweed) under greenhouse condition at 3.36 kg ae/ha measured 21 days post treatment relative to control; type: functional
[3] = test system: Erigeron canadensis; assay: Herbicidal activity against compound-resistant Conyza canadensis (horseweed) isolate 2 under greenhouse condition at 1.68 kg ae/ha measured 21 days post treatment relative to control; type: functional
[4] = test system: Erigeron canadensis; assay: Herbicidal activity against compound-resistant Conyza canadensis (horseweed) isolate 1 under greenhouse condition at 0.45 kg ae/ha measured 7 days post treatment relative to control; type: functional
[5] = test system: Erigeron canadensis; assay: Herbicidal activity against compound-sensitive Conyza canadensis (horseweed) under greenhouse condition at 2.52 kg ae/ha measured 7 days post treatment relative to control; type: functional
[6] = test system: Erigeron canadensis; assay: Herbicidal activity against compound-sensitive Conyza canadensis (horseweed) under greenhouse condition at 3.36 kg ae/ha measured 14 days post treatment relative to control; type: functional
[7] = test system: Erigeron canadensis; assay: Herbicidal activity against compound-resistant Conyza canadensis (horseweed) isolate 2 under greenhouse condition at 2.52 kg ae/ha measured 7 days post treatment relative to control; type: functional
[8] = test system: Erigeron canadensis; assay: Herbicidal activity against compound-resistant Conyza canadensis (horseweed) isolate 2 under greenhouse condition assessed as fresh weight at 0.84 kg ae/ha measured 21 days post treatment relative to untreated control
[9] = test system: Erigeron canadensis; assay: Herbicidal activity against compound-sensitive Conyza canadensis (horseweed) under greenhouse condition at 9 kg ae/ha measured 14 days post treatment relative to control; type: functional
[10] = test system: Erigeron canadensis; assay: Herbicidal activity against compound-resistant Conyza canadensis (horseweed) isolate 1 under greenhouse condition at 0.84 kg ae/ha measured 14 days post treatment relative to control; type: functional
[11] = test system: Erigeron canadensis; assay: Herbicidal activity against compound-sensitive Conyza canadensis (horseweed) under greenhouse condition assessed as fresh weight at 2.52 kg ae/ha measured 21 days post treatment relative to untreated control
[12] = test system: Erigeron canadensis; assay: Herbicidal activity against Conyza canadensis (horseweed) under greenhouse condition assessed as decrease in fresh weight at 0.05 kg ae/ha measured 21 days post treatment relative to untreated control; type: functional
[13] = test system: Erigeron canadensis; assay: Herbicidal activity against compound-resistant Conyza canadensis (horseweed) isolate 1 under greenhouse condition at 0.45 kg ae/ha measured 14 days post treatment relative to control; type: functional
[14] = test system: Erigeron canadensis; assay: Herbicidal activity against compound-resistant Conyza canadensis (horseweed) isolate 1 under greenhouse condition at 2.52 kg ae/ha measured 7 days post treatment relative to control; type: functional
[15] = test system: Erigeron canadensis; assay: Herbicidal activity against compound-resistant Conyza canadensis (horseweed) isolate 1 under greenhouse condition assessed as fresh weight at 1.25 kg ae/ha measured 21 days post treatment relative to untreated control
[16] = test system: Erigeron canadensis; assay: Herbicidal activity against compound-sensitive Conyza canadensis (horseweed) under greenhouse condition at 3.36 kg ae/ha measured 7 days post treatment relative to control; type: functional
[17] = test system: Erigeron canadensis; assay: Herbicidal activity against compound-sensitive Conyza canadensis (horseweed) under greenhouse condition assessed as fresh weight at 3.36 kg ae/ha measured 21 days post treatment relative to untreated control
[18] = test system: Erigeron canadensis; assay: Herbicidal activity against compound-sensitive Conyza canadensis (horseweed) under greenhouse condition assessed as fresh weight at 0.45 kg ae/ha measured 21 days post treatment relative to untreated control
[19] = test system: Erigeron canadensis; assay: Herbicidal activity against compound-resistant Conyza canadensis (horseweed) isolate 2 under greenhouse condition at 2.52 kg ae/ha measured 21 days post treatment relative to control; type: functional
[20] = test system: Erigeron canadensis; assay: Herbicidal activity against compound-sensitive Conyza canadensis (horseweed) under greenhouse condition at 2.52 kg ae/ha measured 14 days post treatment relative to control; type: functional
[21] = test system: Erigeron canadensis; assay: Herbicidal activity against compound-resistant Conyza canadensis (horseweed) isolate 1 under greenhouse condition at 3.36 kg ae/ha measured 21 days post treatment relative to control; type: functional
[22] = test system: Erigeron canadensis; assay: Herbicidal activity against compound-resistant Conyza canadensis (horseweed) isolate 2 under greenhouse condition at 1.25 kg ae/ha measured 21 days post treatment relative to control; type: functional
[23] = test system: Erigeron canadensis; assay: Herbicidal activity against Conyza canadensis (horseweed) under greenhouse condition at 0.05 kg ae/ha measured 14 days post treatment relative to control; type: functional
[24] = test system: Erigeron canadensis; assay: Herbicidal activity against compound-resistant Conyza canadensis (horseweed) isolate 2 under greenhouse condition at 3.36 kg ae/ha measured 21 days post treatment relative to control; type: functional
[25] = test system: Erigeron canadensis; assay: Herbicidal activity against compound-resistant Conyza canadensis (horseweed) isolate 2 under greenhouse condition assessed as fresh weight at 9 kg ae/ha measured 21 days post treatment relative to untreated control
[26] = test system: Erigeron canadensis; assay: Herbicidal activity against compound-sensitive Conyza canadensis (horseweed) under greenhouse condition assessed as fresh weight at 9 kg ae/ha measured 21 days post treatment relative to untreated control
[27] = test system: Erigeron canadensis; assay: Herbicidal activity against compound-resistant Conyza canadensis (horseweed) isolate 2 under greenhouse condition assessed as fresh weight at 2.52 kg ae/ha measured 21 days post treatment relative to untreated control
[28] = test system: Erigeron canadensis; assay: Herbicidal activity against compound-sensitive Conyza canadensis (horseweed) under greenhouse condition at 9 kg ae/ha measured 21 days post treatment relative to control; type: functional
[29] = test system: Erigeron canadensis; assay: Herbicidal activity against compound-sensitive Conyza canadensis (horseweed) under greenhouse condition at 0.45 kg ae/ha measured 7 days post treatment relative to control; type: functional
[30] = test system: Erigeron canadensis; assay: Herbicidal activity against compound-resistant Conyza canadensis (horseweed) isolate 1 under greenhouse condition at 1.25 kg ae/ha measured 14 days post treatment relative to control; type: functional
[31] = test system: Erigeron canadensis; assay: Herbicidal activity against compound-resistant Conyza canadensis (horseweed) isolate 1 under greenhouse condition at 9 kg ae/ha measured 21 days post treatment relative to control; type: functional
[32] = test system: Erigeron canadensis; assay: Herbicidal activity against compound-resistant Conyza canadensis (horseweed) isolate 2 under greenhouse condition at 9 kg ae/ha measured 14 days post treatment relative to control; type: functional
[33] = test system: Erigeron canadensis; assay: Herbicidal activity against compound-resistant Conyza canadensis (horseweed) isolate 1 under greenhouse condition at 9 kg ae/ha measured 14 days post treatment relative to control; type: functional
[34] = test system: Erigeron canadensis; assay: Herbicidal activity against compound-resistant Conyza canadensis (horseweed) isolate 2 under greenhouse condition at 1.68 kg ae/ha measured 14 days post treatment relative to control; type: functional
[35] = test system: Erigeron canadensis; assay: Herbicidal activity against compound-resistant Conyza canadensis (horseweed) isolate 2 under greenhouse condition at 3.36 kg ae/ha measured 14 days post treatment relative to control; type: functional
[36] = test system: Erigeron canadensis; assay: Herbicidal activity against compound-resistant Conyza canadensis (horseweed) isolate 2 under greenhouse condition at 0.45 kg ae/ha measured 14 days post treatment relative to control; type: functional
[37] = test system: Erigeron canadensis; assay: Herbicidal activity against compound-resistant Conyza canadensis (horseweed) isolate 1 under greenhouse condition assessed as fresh weight at 9 kg ae/ha measured 21 days post treatment relative to untreated control

`O=C(O)CNCP(=O)(O)O` [GLYPHOSATE] showed an Activity [1] of 14%, an Activity [2] of 99% and an Activity [3] of 50%. For the same molecule, the Activity [4] was 10%, the Activity [5] was 83% and the Activity [6] was 95%. For the same molecule, the Activity [7] was 53%, the “level, % of control” value [8] was 86% and the Activity [9] was 98%. The Activity [10] was 13%, the “level, % of control” value [11] was 2% and the Activity [12] was 4 g. For the same molecule, the Activity [13] was 8%, the Activity [14] was 58% and the “level, % of control” value [15] was 88%. The Activity [16] was 85%, the “level, % of control” value [17] was 6% and the “level, % of control” value [18] was 30%. For the same molecule, the Activity [19] was 63%, the Activity [20] was 99% and the Activity [21] was 75%. It also gave an Activity [22] of 25%, an Activity [23] of 16% and an Activity [24] of 75%. The “level, % of control” value [25] was 12%, the “level, % of control” value [26] was 1% and the “level, % of control” value [27] was 24%. For the same molecule, the Activity [28] was 99%, the Activity [29] was 40% and the Activity [30] was 18%. It also gave an Activity [31] of 80%, an Activity [32] of 91% and an Activity [33] of 80%. For the same molecule, the Activity [34] was 44%, the Activity [35] was 69% and the Activity [36] was 13%. The “level, % of control” value [37] was 9%.
